In patent US11382956B2, “Amylin analogues” (Zealand Pharma A/S, priority 2016, dated 2022) one finds EC50 data, which are given here for 6 molecules.

Numbered stars: 1 amine (or outer) side, 2 acyl side, 3 side chain; on linkers, the order of the positions; unused ones are H or OH. Bridge positions count the residues as written; N and C are the ends. Square brackets hold non-standard residues; d marks the D form. Peptide text beside a SMILES is read from it. * marks the point of attachment. C20 diacid = O=C(O)CCCCCCCCCCCCCCCCCCC(=O)*; γGlu = O=C(O)[C@H](CCC(=O)[*:2])N[*:1]; Hyp = O=C(O)[C@@H]1C[C@@H](O)CN1; NMeI = CC[C@H](C)[C@H](NC)C(=O)O; Aad = N[C@@H](CCCC(=O)O)C(=O)O; Orn = NCCC[C@H](N)C(=O)O; Dab = NCC[C@H](N)C(=O)O; Dap = NC[C@H](N)C(=O)O; Sar = CNCC(=O)O

Assay [1] addresses T1, recombinant human calcitonin receptor (hCT-R) (Homo sapiens, UniProt P30988).
T1 construct: host or cells: human astrocytoma cell line 1321N1
T1 sequence (P30988 25-474): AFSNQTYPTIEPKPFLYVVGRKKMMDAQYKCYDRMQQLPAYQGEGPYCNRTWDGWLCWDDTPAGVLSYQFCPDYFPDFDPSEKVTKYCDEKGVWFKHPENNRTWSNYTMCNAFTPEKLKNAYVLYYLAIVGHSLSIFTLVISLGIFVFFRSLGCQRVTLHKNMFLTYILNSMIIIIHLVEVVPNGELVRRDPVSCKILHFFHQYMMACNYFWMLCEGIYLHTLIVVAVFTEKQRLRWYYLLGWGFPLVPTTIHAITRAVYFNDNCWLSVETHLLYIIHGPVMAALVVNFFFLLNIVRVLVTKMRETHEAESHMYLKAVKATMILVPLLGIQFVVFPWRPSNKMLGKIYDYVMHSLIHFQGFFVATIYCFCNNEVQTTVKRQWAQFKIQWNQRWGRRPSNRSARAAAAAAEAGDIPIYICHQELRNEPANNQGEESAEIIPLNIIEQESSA
The assay is described as follows: hCT-R cAMP assay (AlphaScreen) in 1321N1 cells. The assay is classed as cell-based. The settings on record: cAMP formation, 45 min stimulation. In short, it runs like this:
(§1)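 1321N1 astrocytoma cells expressing recombinant human calcitonin receptor alone or with RAMP3 (AMY3) stimulated 45 min at room temperature with peptide in IBMX-containing buffer. cAMP quantified by AlphaScreen after 1 h bead incubation; EC50 fitted from at least 7 concentrations.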
In general terms: cAMP levels reflect the balance of adenylyl cyclase and phosphodiesterase activity.

Assay [2] addresses T2, recombinant human amylin 3 receptor (hAMYR3) (Homo sapiens, UniProt O60896+P30988).
T2 construct: host or cells: human astrocytoma cell line 1321N1
T2 sequence (P30988 25-474): T1 sequence (P30988 25-474)
T2 sequence (O60896 24-148 partner): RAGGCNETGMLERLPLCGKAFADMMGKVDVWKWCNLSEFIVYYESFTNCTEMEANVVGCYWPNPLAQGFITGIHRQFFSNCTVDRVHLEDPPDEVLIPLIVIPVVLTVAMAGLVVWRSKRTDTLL
Nature of the assay: hAMYR3 cAMP assay (AlphaScreen) in 1321N1 cells. The class given is cell-based. The settings on record: cAMP formation, 45 min stimulation. The method in brief: as §1

A word on the EC50: it is the concentration giving half of the maximal effect.

Take `CC[C@H](C)[C@@H](C(=O)N[C@@H](CC(C)C)C(=O)N[C@@H](CO)C(=O)N[C@@H](CO)C(=O)N[C@H](C(=O)N[C@@H](CCC(=O)O)C(=O)N[C@H](C(=O)NCC(=O)N[C@@H](CO)C(=O)N[C@@H](CC(N)=O)C(=O)N[C@H](C(=O)N1C[C@H](O)C[C@H]1C(N)=O)[C@@H](C)O)C(C)C)[C@@H](C)O)N(C)C(=O)[C@H](C)NC(=O)CN(C)C(=O)[C@H](Cc1ccccc1)NC(=O)[C@H](C)NC(=O)[C@H](C)NC(=O)[C@H](CCCNC(=N)N)NC(=O)[C@H](CCC(N)=O)NC(=O)[C@H](CC(C)C)NC(=O)[C@H](Cc1ccccc1)NC(=O)[C@H](CCCC(=O)O)NC(=O)[C@H](C)NC(=O)[C@H](CC(C)C)NC(=O)[C@H](CCCNC(=N)N)NC(=O)[C@H](CCC(=O)O)NC(=O)[C@@H](NC(=O)[C@H](C)NC(=O)[C@@H]1CCCCNC(=O)C[C@H](NC(=O)[C@H](CCCNC(=N)N)NC(=O)CC[C@H](NC(=O)CCCCCCCCCCCCCCCCCCC(=O)O)C(=O)O)C(=O)NCC(=O)N[C@@H]([C@@H](C)O)C(=O)N[C@@H](C)C(=O)N[C@@H]([C@@H](C)O)C(=O)N1)[C@@H](C)O` [Compound 31, [19CD]-isoGlu-RD()GTATK()ATERLA-Aad-FLQRAAF-Gly(Me)-A-Ile(Me)-LSSTEVGSNT-Hyp-NH2] ({C20 diacid-γGlu}-RDGTATKATERLA[Aad]FLQRAAF[Sar]A[NMeI]LSSTEVGSNT[Hyp]-NH2; lactam 2-7): the EC50 came to 0.227 nM in assay [1] and 0.066 nM in assay [2].
The corresponding values for `CC[C@H](C)[C@@H](C(=O)N[C@@H](CC(C)C)C(=O)N[C@@H](CO)C(=O)N[C@@H](CO)C(=O)N[C@H](C(=O)N[C@@H](CCC(=O)O)C(=O)N[C@H](C(=O)NCC(=O)N[C@@H](CO)C(=O)N[C@@H](CC(N)=O)C(=O)N[C@H](C(=O)N1C[C@H](O)C[C@H]1C(N)=O)[C@@H](C)O)[C@@H](C)O)[C@@H](C)O)N(C)C(=O)[C@H](C)NC(=O)CN(C)C(=O)[C@H](Cc1ccccc1)NC(=O)[C@H](CO)NC(=O)[C@H](CO)NC(=O)[C@H](CCCNC(=N)N)NC(=O)[C@H](CCC(N)=O)NC(=O)[C@H](CC(C)C)NC(=O)[C@H](Cc1ccccc1)NC(=O)[C@H](CC(=O)O)NC(=O)[C@H](C)NC(=O)[C@H](CC(C)C)NC(=O)[C@H](CCCNC(=N)N)NC(=O)[C@H](CCC(N)=O)NC(=O)[C@@H](NC(=O)[C@H](C)NC(=O)[C@@H]1CCCCNC(=O)C[C@H](NC(=O)[C@H](CCCNC(=N)N)NC(=O)CC[C@H](NC(=O)CCCCCCCCCCCCCCCCCCC(=O)O)C(=O)O)C(=O)NCC(=O)N[C@@H]([C@@H](C)O)C(=O)N[C@@H](C)C(=O)N[C@@H]([C@@H](C)O)C(=O)N1)[C@@H](C)O` [Compound 42, [19CD]-isoGlu-RD()GTATK()ATQRLADFLQRSSF-Gly(Me)-A-Ile(Me)-LSSTETGSNT-Hyp-NH2] ({C20 diacid-γGlu}-RDGTATKATQRLADFLQRSSF[Sar]A[NMeI]LSSTETGSNT[Hyp]-NH2; lactam 2-7) are 0.006 nM and 0.003 nM.
The corresponding values for `CC[C@H](C)[C@@H](C(=O)N[C@@H](CC(C)C)C(=O)N[C@@H](CO)C(=O)N[C@@H](CO)C(=O)N[C@H](C(=O)N[C@@H](CCC(=O)O)C(=O)N[C@H](C(=O)NCC(=O)N[C@@H](CO)C(=O)N[C@@H](CC(N)=O)C(=O)N[C@H](C(=O)N1C[C@H](O)C[C@H]1C(N)=O)[C@@H](C)O)C(C)C)[C@@H](C)O)N(C)C(=O)[C@H](C)NC(=O)CN(C)C(=O)[C@H](Cc1ccccc1)NC(=O)[C@H](CO)NC(=O)[C@H](CO)NC(=O)[C@H](CCCNC(=N)N)NC(=O)[C@H](CCC(N)=O)NC(=O)[C@H](CC(C)C)NC(=O)[C@H](Cc1ccccc1)NC(=O)[C@H](Cc1c[nH]cn1)NC(=O)[C@H](C)NC(=O)[C@H](CC(C)C)NC(=O)[C@H](CCCNC(=N)N)NC(=O)[C@H](CCC(=O)O)NC(=O)[C@@H](NC(=O)[C@H](C)NC(=O)[C@@H]1CC(=O)NC[C@H](NC(=O)[C@H](CCCNC(=N)N)NC(=O)CC[C@H](NC(=O)CCCCCCCCCCCCCCCCCCC(=O)O)C(=O)O)C(=O)NCC(=O)N[C@@H]([C@@H](C)O)C(=O)N[C@@H](C)C(=O)N[C@@H]([C@@H](C)O)C(=O)N1)[C@@H](C)O` [Compound 45, [19CD]-isoGlu-R-Dap()-GTATD()ATERLAHFLQRSSF-Gly(Me)-A-Ile(Me)-LSSTEVGSNT-Hyp-NH2] ({C20 diacid-γGlu}-R[Dap]GTATDATERLAHFLQRSSF[Sar]A[NMeI]LSSTEVGSNT[Hyp]-NH2; lactam 2-7) are 299 nM and 279 nM.
The corresponding values for `CC[C@H](C)[C@@H](C(=O)N[C@@H](CC(C)C)C(=O)N[C@@H](CO)C(=O)N[C@@H](CO)C(=O)N[C@H](C(=O)N[C@@H](CCC(=O)O)C(=O)N[C@H](C(=O)NCC(=O)N[C@@H](CO)C(=O)N[C@@H](CC(N)=O)C(=O)N[C@H](C(=O)N1C[C@H](O)C[C@H]1C(N)=O)[C@@H](C)O)C(C)C)[C@@H](C)O)N(C)C(=O)[C@H](C)NC(=O)CN(C)C(=O)[C@H](Cc1ccccc1)NC(=O)[C@H](CO)NC(=O)[C@H](CO)NC(=O)[C@H](CCCNC(=N)N)NC(=O)[C@H](CCC(N)=O)NC(=O)[C@H](CC(C)C)NC(=O)[C@H](Cc1ccccc1)NC(=O)[C@H](Cc1c[nH]cn1)NC(=O)[C@H](C)NC(=O)[C@H](CC(C)C)NC(=O)[C@H](CCCNC(=N)N)NC(=O)[C@H](CCC(=O)O)NC(=O)[C@@H](NC(=O)[C@H](C)NC(=O)[C@@H]1CC(=O)NCC[C@H](NC(=O)[C@H](CCCNC(=N)N)NC(=O)CC[C@H](NC(=O)CCCCCCCCCCCCCCCCCCC(=O)O)C(=O)O)C(=O)NCC(=O)N[C@@H]([C@@H](C)O)C(=O)N[C@@H](C)C(=O)N[C@@H]([C@@H](C)O)C(=O)N1)[C@@H](C)O` [Compound 46, [19CD]-isoGlu-R-Dab()-GTATD()ATERLAHFLQRSSF-Gly(Me)-A-Ile(Me)-LSSTEVGSNT-Hyp-NH2] ({C20 diacid-γGlu}-R[Dab]GTATDATERLAHFLQRSSF[Sar]A[NMeI]LSSTEVGSNT[Hyp]-NH2; lactam 2-7) are 7.5 nM and 5.5 nM.
For the molecule `CC[C@H](C)[C@@H](C(=O)N[C@@H](CC(C)C)C(=O)N[C@@H](CO)C(=O)N[C@@H](CO)C(=O)N[C@H](C(=O)N[C@@H](CCC(=O)O)C(=O)N[C@H](C(=O)NCC(=O)N[C@@H](CO)C(=O)N[C@@H](CC(N)=O)C(=O)N[C@H](C(=O)N1C[C@H](O)C[C@H]1C(N)=O)[C@@H](C)O)C(C)C)[C@@H](C)O)N(C)C(=O)[C@H](C)NC(=O)CN(C)C(=O)[C@H](Cc1ccccc1)NC(=O)[C@H](CO)NC(=O)[C@H](CO)NC(=O)[C@H](CCCNC(=N)N)NC(=O)[C@H](CCC(N)=O)NC(=O)[C@H](CC(C)C)NC(=O)[C@H](Cc1ccccc1)NC(=O)[C@H](Cc1c[nH]cn1)NC(=O)[C@H](C)NC(=O)[C@H](CC(C)C)NC(=O)[C@H](CCCNC(=N)N)NC(=O)[C@H](CCC(=O)O)NC(=O)[C@@H](NC(=O)[C@H](C)NC(=O)[C@@H]1CC(=O)NCCC[C@H](NC(=O)[C@H](CCCNC(=N)N)NC(=O)CC[C@H](NC(=O)CCCCCCCCCCCCCCCCCCC(=O)O)C(=O)O)C(=O)NCC(=O)N[C@@H]([C@@H](C)O)C(=O)N[C@@H](C)C(=O)N[C@@H]([C@@H](C)O)C(=O)N1)[C@@H](C)O` [Compound 47, [19CD]-isoGlu-R-Orn()-GTATD()ATERLAHFLQRSSF-Gly(Me)-A-Ile(Me)-LSSTEVGSNT-Hyp-NH2] ({C20 diacid-γGlu}-R[Orn]GTATDATERLAHFLQRSSF[Sar]A[NMeI]LSSTEVGSNT[Hyp]-NH2; lactam 2-7), the EC50 in assay [1] amounted to 10.8 nM; in assay [2], 7.7 nM.
For the molecule `CC[C@H](C)[C@@H](C(=O)N[C@@H](CC(C)C)C(=O)N[C@@H](CO)C(=O)N[C@@H](CO)C(=O)N[C@H](C(=O)N[C@@H](CCC(=O)O)C(=O)N[C@H](C(=O)NCC(=O)N[C@@H](CO)C(=O)N[C@@H](CC(N)=O)C(=O)N[C@H](C(=O)N1C[C@H](O)C[C@H]1C(N)=O)[C@@H](C)O)C(C)C)[C@@H](C)O)N(C)C(=O)[C@H](C)NC(=O)CN(C)C(=O)[C@H](Cc1ccccc1)NC(=O)[C@H](CO)NC(=O)[C@H](CO)NC(=O)[C@H](CCCNC(=N)N)NC(=O)[C@H](CCC(N)=O)NC(=O)[C@H](CC(C)C)NC(=O)[C@H](Cc1ccccc1)NC(=O)[C@H](Cc1c[nH]cn1)NC(=O)[C@H](C)NC(=O)[C@H](CC(C)C)NC(=O)[C@H](CCCNC(=N)N)NC(=O)[C@H](CCC(=O)O)NC(=O)[C@@H](NC(=O)[C@H](C)NC(=O)[C@@H]1CNC(=O)CCC[C@H](NC(=O)[C@H](CCCNC(=N)N)NC(=O)CC[C@H](NC(=O)CCCCCCCCCCCCCCCCCCC(=O)O)C(=O)O)C(=O)NCC(=O)N[C@@H]([C@@H](C)O)C(=O)N[C@@H](C)C(=O)N[C@@H]([C@@H](C)O)C(=O)N1)[C@@H](C)O` [Compound 50, [19CD]-isoGlu-R-Aad()-GTAT-Dap()-ATERLAHFLQRSSF-Gly(Me)-A-Ile(Me)-LSSTEVGSNT-Hyp-NH2] ({C20 diacid-γGlu}-R[Aad]GTAT[Dap]ATERLAHFLQRSSF[Sar]A[NMeI]LSSTEVGSNT[Hyp]-NH2; lactam 2-7), the figures for the EC50 in assay [1] and in assay [2] were 3.3 nM and 1.5 nM, respectively.
